Target: T1, DHRS3-Nrf2 interaction (Homo sapiens, UniProt O75911)
T1 construct: purchased Ybio YB710012 (GST-Nrf2); YB765100 (DHRS3)
T1 sequence (O75911 1-302): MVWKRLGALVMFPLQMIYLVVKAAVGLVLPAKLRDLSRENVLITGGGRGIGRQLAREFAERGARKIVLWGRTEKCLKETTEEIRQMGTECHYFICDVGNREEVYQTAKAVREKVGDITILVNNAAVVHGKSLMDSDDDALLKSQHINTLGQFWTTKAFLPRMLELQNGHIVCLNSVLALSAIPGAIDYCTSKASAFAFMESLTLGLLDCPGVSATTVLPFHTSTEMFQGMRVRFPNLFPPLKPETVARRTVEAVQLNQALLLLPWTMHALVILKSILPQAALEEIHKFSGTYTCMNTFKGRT
Assay: GST pull-down of Nrf2 and DHRS3
Type: binding
Conditions: 100 nM, purified GST-tagged Nrf2 and DHRS3 proteins
Protocol: GST-Nrf2 (YB710012, Ybio, China) or GST (Ag0040, Proteintech, China, as control) proteins were mixed with GST Resin (EA-IP-K008, Elabscience Biotechnology, China) for 2 h incubation on the shaker at 4 °C. Subsequently, both Cpd.51 (100 nM) and DHRS3 (YB765100, Ybio, China) were added to the mixture and rotated overnight at 4 °C [40]. Then, following the instructions, the sample buffer was added and heated to 100 °C for 10 min. After completing all steps, the mixture was centrifuged, and the supernatant was collected for western blotting analysis.

With `CC1(C)CCC2(C(=O)NO)CCC3(C)C(C(=O)C=C4C5(C)C=C(C#N)C(=O)C(C)(C)C5CCC43C)C2C1` (stereo not shown) [Cpd.51] the “direct DHRS3-Nrf2 binding (GST pull-down)” value was “significantly reduced”.
